Patent publication US7608408B2, “Methods of identifying compounds that inhibit Notch cleavage” (Bristol-Myers Squibb Company, priority 2005, dated 2009)

How the values were obtained:
Format in all cases: cell-based
HT29 cells = experiment: Mucin immunostaining in HT29 cells by microscopy; conditions: 1 uM, 72 hours, serum-free medium
Procedure: (§1) HT29 cells were seeded in 4 or 8 well slide chambers. 24 hours later, cells were treated for 72 hours in serum-free medium with either Compound Z (1 uM in DMSO) or DMSO at a final DMSO concentration of 0.1%. Treated cells were washed twice with PBS, fixed with 4% paraformaldehyde (10 min, RT) followed by methanol (2 min, −20° C.). Fixed cells were washed twice with PBS, incubated with PBS+0.5% TritonX100 for 10 min., washed twice with PBS and blocked for 2 hr in PBS containing 0.1% TritonX100, 2% BSA and 5% dry milk. Cells were stained with primary antibody against mucin-2, mucin-5AC, mucin-1, mucin-3, or mucin-6 by adding primary antibody in blocking buffer and incubating 1 hr, RT. Cells were washed 3× with PBS+0.1% TritonX100 and stained with an appropriate species-specific PE-, TRITC- or FITC-labeled secondary antibody for 30 min., RT. Cells were visualized through microscopy. γ-secretase inhibitor Compound Z induced mucin-2 and mucin-5AC (FIGS. 1A and 1B) but not mucin-1, mucin-3, or mucin-6 in HT29 cells.

HT29-L23 cells [1] = experiment: Mucin-2 induction in HT29-L23 cells transfected with NICD, AICD or control plasmid (High Content Screening); conditions: 1 uM
Procedure: HT29-L23 cells were transiently transfected with control plasmid (pcDNA-DsRed) or Myc epitope tagged Notch intracellular domain (NICD) (activated Notch-1) or APP intracellular domain (AICD) (activated APP). Cells were treated with Compound Z (1 uM in DMSO) or vehicle, and protein expression was analyzed by High Content Screening as described in Example 1. After staining with Mucin-2 and Myc antibodies, the transfected subpopulation of cells (Myc positive) were used for final analysis. Cells without DsRed expression were designated as control. Statistical significance was determined by one-way ANOVA followed by Bonferroni's multiple comparison test performed within and between groups.

HT29-L23 cells [2] = experiment: Real time PCR of Notch pathway genes in HT29-L23 cells; conditions: relative to DMSO, normalized to PPIA
Procedure: HT29-L23 cells were treated with Compound Z or DMSO as described in Example 1. mRNA were isolated at indicated time points (FIGS. 5A-E) and analyzed by real time PCR with indicated Taqman probes (Applied Biosystems, Foster City, Calif.). Results were normalized relative to the amount of cyclophilin A (PPIA) mRNA for the same sample and were plotted as fold changes relative to DMSO treated sample at time zero. Statistical significance was determined by one-way ANOVA followed by Bonferroni's multiple comparison test performed within groups.

Notch = Notch cleavage assay; conditions: n=252
Excerpt: (§2) Any method for determining the ability of a compound to inhibit cleavage of γ-secretase substrates known in the art may be employed. For example, methods for assessing the ability of a compound to cleave APP are known. The ability of a compound to cleave APP may be assessed, for example, by measuring or detecting Aβ peptides (e.g., Aβ1-40, Aβ1-42; see, e.g., U.S. Published Application No. 2003/0215896).

[3] = test system: Notch signaling (Notch-1 ΔE / CBF1 luciferase reporter); experiment: Inhibition of Notch signaling in HeLa cells transiently transfected with Notch-1 ΔE and CBF1 luciferase reporter; conditions: Homo sapiens
Procedure: (§3) HeLa cells were transiently transfected with Notch-1 ΔE and the CBF1 luciferase reporter, and inhibition of Notch signaling by compounds known to inhibit γ-secretase was determined. Induction of mucin-2 in HT29-L23 cells was determined as in Example 1 for the same set of γ-secretase inhibitory compounds.

APP = APP cleavage assay (Aβ peptides); conditions: n=166
Excerpt: as §2

HT29-L23 cells [4] = experiment: Mucin-2 induction in HT29-L23 cells; conditions: read-out: HT29-L23 IC50 (mucin-2 induction)
Procedure: as §1, with “Cells were washed 3× with PBS+0.1% TritonX100 and stained with an appropriate species-specific PE-, TRITC- or FITC-labeled secondary antibody for 30 min., RT. Cells were visualized through microscopy. γ-secretase inhibitor Compound Z induced mucin-2 and mucin-5AC (FIGS. 1A and 1B) but not mucin-1, mucin-3, or mucin-6 in HT29 cells.” left out
HT29 subclones were generated through limiting dilution. […] Mucin-2 positive cells were measured by FACS analysis (FIG. 2). […] Images were acquired on an ArrayScan™ system and analyzed for mucin-2 expression with the Target activation application (FIGS. 3A and 3B).
as §3

SMILES: C[C@H](NC(=O)[C@@H](O)c1cc(F)cc(F)c1)C(=O)N[C@@H]1C(=O)N(C)N=Cc2ccccc21 [Compound 1]
- mucin-1 induction (HT29 cells): not
- mucin-2 induction (HT29 cells): induced
- mucin-3 induction (HT29 cells): not
- mucin-5AC induction (HT29 cells): induced
- mucin-6 induction (HT29 cells): not
- number of cells producing mucin-2 (HT29-L23 cells [1]; AICD (activated APP) transfected group): increased
- number of cells producing mucin-2 (HT29-L23 cells [1]; Control group): increased
- Delta-1 mRNA (HT29-L23 cells [2]): induced
- HES-1 mRNA (HT29-L23 cells [2]): downregulated
- Jagged-2 mRNA (HT29-L23 cells [2]): induced
- Math-1 mRNA (HT29-L23 cells [2]): induced
- Mucin-2 mRNA (HT29-L23 cells [2]): induced
- EC50 (Notch): 2.1 nM
- IC50 [3]: 4.59 nM
- EC50 (APP): 0.81 nM
- IC50 (HT29-L23 cells [4]): 11.9 nM
